The results in this text go back to US7608604B2, “Antiparasitic agents” (Pfizer Limited, priority 2007, dated 2009).

In the first assay the test system is Haemonchus contortus L3. In words: Haemonchus contortus L3 (HcL3) in vitro test. Format: cell-based. The settings on record: minimum effective dose; table of Examples 13a-42; 13a/b, 27a/b, 29a/b, 33a/b tested as mixtures of regioisomers. How it is done: The Haemonchus contortus L3 (HcL3) test is used to measure the biological activities of the compounds claimed. The assay involves in vitro testing against H. contortus conducted according to the following general procedure.
HcL3 larvae were collected from infected sheep and, after cleaning, stored in water at 12° C. for up to one month. Viable infective larvae were exsheathed using 10% hypochlorite in Glucose Tyrodes balanced salt solution containing antibiotics and resuspended in basal medium (20 g/l bacto-tryptone, 5 g/l yeast extract, 57 g/l glucose, 0.8 g/l di-Potassium hydrogen orthophosphate, 0.8 g/l potassium dihydrogen orthophosphate and […] Hepes with antibiotics). 95 μl worm suspension was added to each well of a 96 well plate.
Test compounds were dissolved in dimethylsulfoxide to give a working stock solution of 20 mg/ml. The stock concentration was diluted 1:10 in Basal media to give 2.0 mg/ml (10% DMSO). 5 μl of the stock compound solution was added to the worm suspension to give a final concentration of 100 μg/ml. Plates were sealed with pressure sensitive film and incubated at 37° C. Observations were made 2 hrs, 24 hrs, 48 hrs, 72 hrs and 4 days post-treatment using an inverted microscope. Activity was recorded if a significant proportion of the worms were dead or adversely affected by the compound when compared to the control well containing 1% DMSO. Compounds were initially tested at 100 μg/ml, wherefrom relevant dose responses (100, 30, 10, 3, 1, 0.3, 0.1 μg/ml) were conducted in duplicate experiments to generate n=2. Data was recorded as minimum effective dose.
For `CC(C#N)(COc1cccc(C#N)c1Br)NC(=O)c1ccc(S(F)(F)(F)(F)F)cc1` (stereo not shown) [Example 37, N-[2-(2-Bromo-3-cyanophenoxy)-1-cyano-1-methylethyl]-4-(pentafluorothio)benzamide], the “H.c. (L3) MED” value is 3 µg/mL.

For the compound `CC(C#N)(COc1cc(Cl)ccc1Cl)NC(=O)c1ccc(S(F)(F)(F)(F)F)cc1` (stereo not shown) [Example 38, N-[1-Cyano-2-(2,5-dichlorophenoxy)-1-methylethyl]-4-(pentafluorothio)benzamide], the “H.c. (L3) MED” value is 10 µg/mL.

`CC(C#N)(COc1cccc(F)c1Cl)NC(=O)c1ccc(S(F)(F)(F)(F)F)cc1` (stereo not shown) [Example 39, N-[2-(2-Chloro-3-fluorophenoxy)-1-cyano-1-methylethyl]-4-(pentafluorothio)benzamide]: the “H.c. (L3) MED” value was 30 µg/mL.

Regarding `CC(C#N)(COc1cccc(Br)c1C#N)NC(=O)c1ccc(S(F)(F)(F)(F)F)cc1` (stereo not shown) [Example 40, N-[2-(3-Bromo-2-cyanophenoxy)-1-cyano-1-methylethyl]-4-(pentafluorothio)benzamide], the “H.c. (L3) MED” value is 10 µg/mL.

Turning to `CC(C#N)(COc1ccc(Br)cc1C#N)NC(=O)c1ccc(S(F)(F)(F)(F)F)cc1` (stereo not shown) [Example 41, N-[2-(4-Bromo-2-cyanophenoxy)-1-cyano-1-methylethyl]-4-(pentafluorothio)benzamide], the “H.c. (L3) MED” value amounted to 10 µg/mL.

For the compound `CC(C#N)(COc1cccc(Cl)c1Cl)NC(=O)c1ccc(S(F)(F)(F)(F)F)cc1` (stereo not shown) [Example 42, N-[1-Cyano-2-(2,3-dichlorophenoxy)-1-methylethyl]-4-(pentafluorothio)benzamide], the “H.c. (L3) MED” value worked out at 30 µg/mL.

Regarding “N-[2-(2-Chloro-4-fluorophenoxy)-1-cyano-1-methylethyl]-4-(pentafluorothio)benzamide [Example 13a]”, the “H.c. (L3) MED” value was determined as 1 µg/mL.

For the compound “N-[2-(3-Chloro-4-fluorophenoxy)-1-cyano-1-methylethyl]-4-(pentafluorothio)benzamide [Example 13b]”, the “H.c. (L3) MED” value amounted to 1 µg/mL.

For “N-[2-(4-Chlorophenoxy)-1-cyano-1-methylethyl]-(pentafluorothio)benzamide [Example 15]”, the “H.c. (L3) MED” value is 30 µg/mL.

The same assay, now with this note: minimum effective dose; table of Examples 45-49.
Turning to `CC(C#N)(COc1cc(C#N)ccc1C(N)=O)NC(=O)c1ccc(S(F)(F)(F)(F)F)cc1` (stereo not shown) [Example 45, 4-Cyano-2-(2-cyano-2-{[4-(pentafluorothio)benzoyl]amino}propoxy)benzamide], the “H.c. (L3) MED” value was found to be 30 µg/mL.

On to `CC(C#N)(COc1cc(C#N)ccc1C#N)NC(=O)c1ccc(S(F)(F)(F)(F)F)cc1` (stereo not shown) [Example 46, N-[1-Cyano-2-(2,5-dicyanophenoxy)-1-methylethyl]-4-(pentafluorothio)benzamide], for which the “H.c. (L3) MED” value worked out at 10 µg/mL.

Turning to `CC(C#N)(COc1ccc(C#N)cc1C#N)NC(=O)c1ccc(S(F)(F)(F)(F)F)cc1` (stereo not shown) [Example 47, N-[1-Cyano-2-(2,4-dicyanophenoxy)-1-methylethyl]-4-(pentafluorothio)benzamide], the “H.c. (L3) MED” value came out at 10 µg/mL.

On to `CC(C#N)(COc1cc(F)cc(C#N)c1)NC(=O)c1ccc(S(F)(F)(F)(F)F)cc1` (stereo not shown) [Example 48, N-[1-Cyano-2-(3-cyano-5-fluorophenoxy)-1-methylethyl]-4-(pentafluorothio)benzamide], for which the “H.c. (L3) MED” value was 3 µg/mL.

`CC(C#N)(COc1ccc(C(N)=O)cc1Cl)NC(=O)c1ccc(S(F)(F)(F)(F)F)cc1` (stereo not shown) [Example 49]: the “H.c. (L3) MED” value turned out to be 10 µg/mL.

Still in this assay, the particulars now being: minimum effective dose; table of Examples 51-52.
On to `CC(C#N)(COc1c(F)cc(C#N)cc1F)NC(=O)c1ccc(S(F)(F)(F)(F)F)cc1` (stereo not shown) [Example 51, N-[1-Cyano-2-(4-cyano-2,6-difluorophenoxy)-1-methylethyl]-4-(pentafluorothio)benzamide], for which the “H.c. (L3) MED” value was determined as 3 µg/mL.

`CC(C#N)(COc1cccc(Cl)c1C(F)(F)F)NC(=O)c1ccc(S(F)(F)(F)(F)F)cc1` (stereo not shown) [Example 52, N-{2-[3-Chloro-2-(trifluoromethyl)phenoxy]-1-cyano-1-methylethyl}-4-(pentafluorothio)benzamide]: the “H.c. (L3) MED” value was 10 µg/mL.
